Test results as given in patent US8569267B2, “Tetracyclic tetrahydrofuran derivatives containing cyclic amine side chain” (Janssen Pharmaceutica, NV, priority 2005, dated 2013).

Legend:
[1] = target: T1, human Dopamine D2L receptor (Homo sapiens, UniProt P14416); assay: In vitro binding affinity for human D2L receptor ([3H]Spiperone binding); details: human D2L receptor-transfected CHO cell membranes; for IC50: read-out: D2L pIC50 (converted)
T1 construct: expressed in transfected cells; host or cells: CHO cells
In short: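 Competition curves were expressed as percent specific binding, measured by scintillation counting after filtration onto GF/B filters and ice-cold Tris washes. Test compounds competed with [3H]Spiperone, added from a 2 nmol/L dilution, for 30 min at 37° C on transfected CHO membranes in pH 7.7 Tris-HCl salt buffer. Butaclamol at 10^−6 mol/l final marked non-specific binding.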

[2] = target: T2, human cloned 5-HT2C receptor, expressed in CHO cells (Homo sapiens, UniProt P28335); assay: In vitro binding affinity for 5-HT2C receptor ([3H]mesulergine radioligand binding); details: human cloned 5-HT2C receptor; for IC50: read-out: 5-HT2C pIC50 (converted)
T2 construct: expressed in transfected cells; host or cells: CHO cells
T2 sequence (P28335 33-458): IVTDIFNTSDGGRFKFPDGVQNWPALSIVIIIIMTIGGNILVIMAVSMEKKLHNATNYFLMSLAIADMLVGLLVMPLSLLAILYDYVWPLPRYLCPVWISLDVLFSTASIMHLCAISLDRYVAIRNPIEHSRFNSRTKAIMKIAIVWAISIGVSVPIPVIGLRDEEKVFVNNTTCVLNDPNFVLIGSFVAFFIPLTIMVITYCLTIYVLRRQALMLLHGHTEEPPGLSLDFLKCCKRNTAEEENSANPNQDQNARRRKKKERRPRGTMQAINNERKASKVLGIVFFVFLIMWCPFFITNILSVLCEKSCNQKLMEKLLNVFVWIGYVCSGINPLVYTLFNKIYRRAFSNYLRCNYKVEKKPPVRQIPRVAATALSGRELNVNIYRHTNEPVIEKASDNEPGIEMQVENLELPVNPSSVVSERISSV
In short: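 Receptor-bound radioligand counted after separation from unbound label once equilibrium is reached. Test compound added across a concentration range to tissue preparation plus radioligand; inhibition of binding reflects affinity and concentration.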

[3] = target: T3, NET (norepinephrine transporter) (Rattus norvegicus, UniProt Q63380); assay: In vitro determination of NET reuptake inhibition ([3H]Nixosetine binding, rat brain cortex); details: rat brain cortex; for IC50: read-out: NET pIC50 (converted)
T3 construct: Cortex from rat brain was collected and homogenised; from tissue; host or cells: rat brain cortex
In short: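 Competition curves and percentage specific binding came from scintillation counting of filter-trapped radioactivity. The membranes were rat cortical homogenate in pH 7.4 Tris buffer with 120 mM NaCl and 5 mM KCl. Test compounds competed with [3H]nisoxetine for binding.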

[4] = target: T4, human cloned 5-HT2A receptor, expressed in L929 cells (Homo sapiens, UniProt P28223); assay: In vitro binding affinity for 5-HT2A receptor ([125I]R91150 radioligand binding); details: human cloned 5-HT2A receptor in L929 cells, [125I]R91150; for IC50: read-out: 5-HT2A pIC50 (converted)
T4 construct: expressed in transfected cells; host or cells: L929 cells
In short: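 Competition radioligand binding to human cloned 5-HT2A receptor expressed in L929 cells, using [125I]R91150 with test compound at various concentrations. At equilibrium, receptor-bound radioactivity was separated from free and counted. Affinity reflects inhibition of radioligand binding.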

T3 sequence (Q63380 1-617): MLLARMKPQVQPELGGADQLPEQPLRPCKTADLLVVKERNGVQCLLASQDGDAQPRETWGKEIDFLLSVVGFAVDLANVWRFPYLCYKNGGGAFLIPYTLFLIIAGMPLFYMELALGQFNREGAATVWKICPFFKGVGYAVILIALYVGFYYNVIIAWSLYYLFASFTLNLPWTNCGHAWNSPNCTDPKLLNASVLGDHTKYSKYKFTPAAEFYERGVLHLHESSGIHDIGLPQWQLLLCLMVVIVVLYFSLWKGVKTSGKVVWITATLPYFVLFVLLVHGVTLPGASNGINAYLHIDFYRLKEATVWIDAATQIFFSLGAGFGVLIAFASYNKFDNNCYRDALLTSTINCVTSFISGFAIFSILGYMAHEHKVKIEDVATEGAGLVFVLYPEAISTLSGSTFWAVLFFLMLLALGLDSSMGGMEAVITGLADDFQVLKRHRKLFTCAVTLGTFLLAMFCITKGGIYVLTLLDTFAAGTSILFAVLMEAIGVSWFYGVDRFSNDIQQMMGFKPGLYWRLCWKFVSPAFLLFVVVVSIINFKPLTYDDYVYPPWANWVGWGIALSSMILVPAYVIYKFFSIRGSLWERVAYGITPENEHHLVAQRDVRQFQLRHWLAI
T4 sequence (P28223 whole entry): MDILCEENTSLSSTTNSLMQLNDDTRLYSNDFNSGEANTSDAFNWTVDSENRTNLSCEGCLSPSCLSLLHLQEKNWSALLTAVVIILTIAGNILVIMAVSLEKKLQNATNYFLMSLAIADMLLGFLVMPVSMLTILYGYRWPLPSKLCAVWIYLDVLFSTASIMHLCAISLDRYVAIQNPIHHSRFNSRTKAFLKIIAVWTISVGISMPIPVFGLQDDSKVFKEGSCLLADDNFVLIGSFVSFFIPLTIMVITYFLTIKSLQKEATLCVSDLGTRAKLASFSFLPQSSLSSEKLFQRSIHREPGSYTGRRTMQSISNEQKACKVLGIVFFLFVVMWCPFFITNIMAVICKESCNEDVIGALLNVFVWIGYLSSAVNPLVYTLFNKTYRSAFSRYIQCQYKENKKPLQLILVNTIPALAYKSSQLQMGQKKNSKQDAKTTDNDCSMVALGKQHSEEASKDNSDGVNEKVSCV
T1 sequence (P14416 whole entry): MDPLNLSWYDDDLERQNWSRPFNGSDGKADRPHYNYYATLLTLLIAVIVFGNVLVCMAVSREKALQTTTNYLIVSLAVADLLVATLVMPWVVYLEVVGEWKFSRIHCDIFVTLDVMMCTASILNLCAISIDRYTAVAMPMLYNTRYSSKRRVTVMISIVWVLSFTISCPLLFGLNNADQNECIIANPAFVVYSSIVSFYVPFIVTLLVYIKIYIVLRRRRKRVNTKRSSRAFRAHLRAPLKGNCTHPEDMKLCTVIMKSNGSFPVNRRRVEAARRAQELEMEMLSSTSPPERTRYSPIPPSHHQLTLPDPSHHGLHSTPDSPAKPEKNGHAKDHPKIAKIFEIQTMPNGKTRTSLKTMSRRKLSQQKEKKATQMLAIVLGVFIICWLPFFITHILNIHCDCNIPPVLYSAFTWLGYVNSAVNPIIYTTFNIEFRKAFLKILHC

SMILES | IC50 [1] | IC50 [2] | IC50 [3] | IC50 [4] | D2L pIC50 [1] | 5-HT2C pIC50 [2] | NET pIC50 [3] | 5-HT2A pIC50 [4]
Fc1ccc2c(c1)C1OC(CN3CCC(Oc4cccc(C(F)(F)F)c4)C3)CC1c1ccccc1C2 (mixture of isomers) [Compound 37] | 32.4 nM | 7.94 nM | > 10000 nM | 22.4 nM | – | – | – | –
CC(=O)OCCN1[C@H](C)CN(C[C@H]2C[C@@H]3c4ccccc4Cc4ccc(F)cc4[C@@H]3O2)C[C@@H]1C.O=C(O)C(=O)O [Compound 281] | – | – | – | – | 7.74 | 7.87 | <5 | 8.39
CC(C)(C)NC(=O)C1CCN(CC2CC3c4ccccc4Cc4ccc(F)cc4C3O2)CC1 (stereo not shown) [Compound 173] | 13.2 nM | 5.75 nM | 6460 nM | 0.724 nM | – | – | – | –
CCCCCC(=Cc1ccccc1)CN1CCN(CC2CC3c4ccccc4Cc4ccc(F)cc4C3O2)CC1 (stereo not shown) [Compound 50] | 70.8 nM | 105 nM | 2140 nM | 34.7 nM | – | – | – | –
O=C(C1CCCO1)N1CCN(CC2CC3c4ccccc4Cc4ccc(F)cc4C3O2)CC1 (mixture of isomers) [Compound 80] | 44.7 nM | 16.6 nM | 3720 nM | 1.07 nM | – | – | – | –
CCNC(=O)OCC1CCN(CC2CC3c4ccccc4Cc4ccc(F)cc4C3O2)C1 (mixture of isomers) [Compound 20] | 3.63 nM | 1.41 nM | 1050 nM | 0.832 nM | – | – | – | –
Fc1ccc2c(c1)C1OC(CN3CCN(Cc4ccc5ccccc5c4)CC3)CC1c1ccccc1C2 (stereo not shown) [Compound 74] | 30.9 nM | 162 nM | 3160 nM | 126 nM | – | – | – | –
CCCCNC(=S)N1CCN(C[C@H]2C[C@@H]3c4ccccc4Cc4ccc(F)cc4[C@@H]3O2)CC1 [Compound 108] | 29.5 nM | 16.2 nM | 3240 nM | 4.57 nM | – | – | – | –
O=C(NC1CCCCC1)C1CCN(CC2CC3c4ccccc4Cc4ccc(F)cc4C3O2)CC1 (stereo not shown) [Compound 188] | 9.77 nM | 2.75 nM | > 10000 nM | < 10 nM | – | – | – | –
Fc1ccc2c(c1)C1OC(CN3CCN(c4ccc(C(F)(F)F)cn4)CC3)CC1c1ccccc1C2 (stereo not shown) [Compound 120] | 363 nM | 87.1 nM | > 10000 nM | 35.5 nM | – | – | – | –
Fc1ccc2c(c1)C1OC(CN3CCN(Cc4ccco4)CC3)CC1c1ccccc1C2 (stereo not shown) [Compound 60] | 6.31 nM | 25.1 nM | 1550 nM | 7.76 nM | – | – | – | –
O=C(Nc1ccc(F)c(Cl)c1)C1CCN(CC2CC3c4ccccc4Cc4ccc(F)cc4C3O2)CC1 (stereo not shown) [Compound 190] | 47.9 nM | 2.75 nM | > 10000 nM | < 10 nM | – | – | – | –
OCCCC1CCN(CC2CC3c4ccccc4Cc4ccc(F)cc4C3O2)CC1 (stereo not drawn) [Compound 155, [2R-(2α, 3aα, 12bβ)]3-[1-(11-fluoro-3,3a,8,12b-tetrahydro-2H-1-oxa-dibenzo[e,h]-azulen-2-ylmethyl)-piperidin-4-yl]-propan-1-ol.oxalate (1:1)] | 1.48 nM | 2.88 nM | 1860 nM | 1.51 nM | – | – | – | –
O=C(C1CC1)N1CCN(C[C@H]2C[C@@H]3c4ccccc4Cc4ccc(F)cc4[C@@H]3O2)CC1 [Compound 78, [2R-(2α, 3aα, 12bβ)]cyclopropyl-[4-(11-fluoro-3,3a, 8,12b-tetrahydro-2H-1-oxa-dibenzo[e,h]azulen-2-ylmethyl)-piperazin-1-yl]-methanone.oxalate (1:1)] | 36.3 nM | 8.91 nM | > 10000 nM | 2.24 nM | – | – | – | –
Fc1ccc2c(c1)C1OC(CN3CCN(Cc4cccs4)CC3)CC1c1ccccc1C2 (stereo not shown) [Compound 58] | 7.41 nM | 25.7 nM | 977 nM | 11 nM | – | – | – | –
CN(C)C1CCN(CC2CC3c4ccccc4Cc4ccc(F)cc4C3O2)C1 (mixture of isomers) [Compound 9] | 9.12 nM | 9.55 nM | 4570 nM | 9.12 nM | – | – | – | –

SMILES | IC50 [1] | IC50 [2] | IC50 [3] | IC50 [4] | D2L pIC50 [1] | 5-HT2C pIC50 [2] | NET pIC50 [3] | 5-HT2A pIC50 [4]
Fc1ccc2c(c1)[C@@H]1O[C@@H](CN3CC=CC3)C[C@@H]1c1ccccc1C2.O=C(O)C(=O)O [Compound 266] | – | – | – | – | 7.42 | 8.42 | 6.61 | 8.09
Fc1ccc2c(c1)C1OC(CN3CCN(c4cnccn4)CC3)CC1c1ccccc1C2 (stereo not shown) [Compound 123] | 40.7 nM | 7.24 nM | 2820 nM | 2.75 nM | – | – | – | –
Fc1ccc2c(c1)[C@@H]1O[C@@H](CN3CCN(c4cccc(C(F)(F)F)n4)CC3)C[C@@H]1c1ccccc1C2 [Compound 119] | 158 nM | 51.3 nM | 4070 nM | 10.2 nM | – | – | – | –
O=C(OC1CCN(CC2CC3c4ccccc4Cc4ccc(F)cc4C3O2)C1)c1ccc(F)cc1F (mixture of isomers) [Compound 17] | 6.03 nM | 4.68 nM | 1740 nM | 5.75 nM | – | – | – | –
CC(=O)C1(c2ccccc2)CCN(C(=O)C2CCN(CC3CC4c5ccccc5Cc5ccc(F)cc5C4O3)CC2)CC1 (stereo not shown) [Compound 209] | 31.6 nM | 12 nM | 5250 nM | 4.68 nM | – | – | – | –
O=C(O)C(=O)O.OC1CCN(CC2CC3c4ccccc4Oc4ccc(Cl)cc4C3O2)CC1 (stereo not shown) [Compound 285] | – | – | – | – | 7.49 | 7.76 | <5 | 8.56
COC(=O)c1ccc(OC2CCN(CC3CC4c5ccccc5Cc5ccc(F)cc5C4O3)C2)cc1 (stereo not shown) [Compound 30] | 16.2 nM | 5.75 nM | > 10000 nM | 10.5 nM | – | – | – | –
N#CCCC1CCN(CC2CC3c4ccccc4Cc4ccc(F)cc4C3O2)CC1 (stereo not shown) [Compound 170] | 1.51 nM | 2.63 nM | 4270 nM | 1.82 nM | – | – | – | –
CS(=O)(=O)N1CCN(CC2CC3c4ccccc4Cc4ccc(F)cc4C3O2)CC1 (stereo not shown) [Compound 102] | 10.7 nM | 12.6 nM | > 10000 nM | 4.68 nM | – | – | – | –
O=C(NCCCn1ccnc1)C1CCN(CC2CC3c4ccccc4Cc4ccc(F)cc4C3O2)CC1 (stereo not shown) [Compound 180] | 37.2 nM | 3.89 nM | > 10000 nM | 2.45 nM | – | – | – | –
Fc1ccc2c(c1)C1OC(CN3CCN(C(=S)NC4CCCCC4)CC3)CC1c1ccccc1C2 (stereo not shown) [Compound 114] | 45.7 nM | 20.9 nM | 1100 nM | 6.17 nM | – | – | – | –
N#Cc1ccc(C(=O)NC2CCN(CC3CC4c5ccccc5Cc5ccc(F)cc5C4O3)CC2)cc1 (stereo not shown) [Compound 236] | 6.76 nM | 9.55 nM | > 10000 nM | 1.51 nM | – | – | – | –
OCC1CN(CC2CC3c4ccccc4Cc4ccc(F)cc4C3O2)CCO1 (mixture of isomers) [Compound 128, [2R-(2aα, 3aα, 12bβ)]-(3′RS)-[4-(11-fluoro-3,3a,8,12b-tetrahydro-2H-1-oxa-dibenzo[e,h]azulen-2-ylmethyl)-morpholin-2-yl]-methanol.oxalate (1:1)] | 18.6 nM | 11.7 nM | 2630 nM | 4.37 nM | – | – | – | –
N#Cc1ccc2c(c1)[C@H]1C[C@@H](CN3CCC(O)C3)O[C@H]1c1cc(F)ccc1S2 (relative stereo) [Compound 260] | 24.5 nM | 3.09 nM | 912 nM | 2.24 nM | – | – | – | –
Fc1ccc2c(c1)C1OC(CN3CCCC(C4=NCCN4)C3)CC1c1ccccc1C2 (stereo not shown) [Compound 171] | 282 nM | 18.2 nM | 1410 nM | 28.2 nM | – | – | – | –
